Data on twelve molecules can be found in ChEMBL document CHEMBL5126556, “Recent advances in natural anti-obesity compounds and derivatives based on in vivo evidence: A mini-review” (Eur J Med Chem, 2022).

Each structure is given as a SMILES string.

One may read the Kd as the equilibrium constant for the complex coming apart. What is called LD50 is the dose at which mortality reaches 50%.

The test system of data set [1] is Mus musculus. In words: Anti-obesity activity in Swiss male mouse model of high-fat diet induced obesity assessed as body weight change at 10 mg/kg, po administered for 15 weeks relative to control. The data set is classed as functional.
Data set [2] deals with Mus musculus. In words: Anti-obesity activity in female C57BL/6 mouse model of high-fat diet induced obesity assessed as body weight change at 0.005 % (w/v) administered orally for 16 weeks relative to control. The class given is functional. As to conditions: route po.
Data set [3] has as its system Mus musculus. The experiment in a line: Anti-obesity activity in male C57BL/6 mouse model of high-fat diet induced obesity assessed as body weight change at 25 mg/kg, ip administered once a day for 13 weeks relative to control. The class given is functional.
In data set [4] the test system is Mus musculus. In words: Anti-obesity activity in male C57BL/6 mouse model of high-fat diet induced obesity assessed as body weight change administered orally with 0.5 g in 500 g of HFD diet for 13 weeks relative to control. The conditions noted are these: route po, at 0.5 g. The class given is functional.
Data set [5] relates to Mus musculus. In words: Anti-obesity activity in male C57BL/6 mouse model of high-fat diet induced obesity assessed as body weight change at 150 mg/kg, po administered once a day for 4 weeks relative to control. The data set is classed as functional.
The test system of data set [6] is Mus musculus. In words: Anti-obesity activity in high-fat diet induced C57BL/6J obese mouse model assessed as body weight change at 150 mg/kg, po administered once daily for 4 weeks relative to control. The data set is classed as functional.
The test system of data set [7] is Mus musculus. In words: Anti-obesity activity in male C57BL/6 mouse model of high-fat diet induced obesity assessed as body weight change at 15 mg/kg, ip administered once a day for 8 weeks relative to control. The data set is classed as functional.
The target of data set [8] is T1, Dihydrolipoyllysine-residue acetyltransferase component of pyruvate dehydrogenase complex, mitochondrial (Homo sapiens, UniProt P10515).
T1 sequence (P10515 whole entry): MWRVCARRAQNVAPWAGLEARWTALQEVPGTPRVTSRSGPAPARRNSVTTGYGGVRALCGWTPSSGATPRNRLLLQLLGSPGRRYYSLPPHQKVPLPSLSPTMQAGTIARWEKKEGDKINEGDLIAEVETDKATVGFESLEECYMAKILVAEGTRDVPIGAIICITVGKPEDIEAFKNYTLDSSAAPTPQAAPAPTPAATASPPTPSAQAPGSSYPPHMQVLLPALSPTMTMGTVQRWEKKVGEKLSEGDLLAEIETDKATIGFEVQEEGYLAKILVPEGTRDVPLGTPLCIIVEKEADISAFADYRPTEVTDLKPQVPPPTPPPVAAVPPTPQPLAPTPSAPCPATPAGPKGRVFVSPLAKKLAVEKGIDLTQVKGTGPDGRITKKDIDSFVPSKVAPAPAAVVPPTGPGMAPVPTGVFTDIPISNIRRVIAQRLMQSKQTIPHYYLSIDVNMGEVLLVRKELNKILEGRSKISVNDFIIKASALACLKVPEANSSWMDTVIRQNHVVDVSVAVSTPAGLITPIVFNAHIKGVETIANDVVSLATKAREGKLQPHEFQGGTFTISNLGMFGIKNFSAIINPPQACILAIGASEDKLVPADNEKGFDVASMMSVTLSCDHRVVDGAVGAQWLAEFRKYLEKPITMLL
In words: Binding affinity to recombinant GFP fused […] (unknown origin) by Lip-SMap analysis.

Data set [9] relates to Mus musculus. The experiment in a line: Anti-obesity activity in male C57BL/6 mouse model of high-fat diet induced obesity assessed as body weight change at 2.5 mg/kg, ip administered once a day for 8 weeks relative to control. The class given is functional.
Data set [10] is described as follows: Toxicity in po dosed mouse assessed as lethal dose. The class given is organism-based. As to conditions: in vivo.
Data set [11] concerns Mus musculus. In words: Anti-obesity activity in male C57BL/6 mouse model of high-fat diet induced obesity assessed as body weight change at 10 mg/kg, po administered once a day for 3 weeks relative to control. The data set is classed as functional.
The subject of data set [12] is Mus musculus. In words: Anti-obesity activity in male C57BL/6 mouse model of high-fat diet induced obesity assessed as body weight change at 3 mg/kg, po administered once a day for 8 weeks relative to control. The data set is classed as functional.
The subject of data set [13] is Mus musculus. In words: Anti-obesity activity in male C57BL/6 mouse model of high-fat diet induced obesity assessed as body weight change at 0.1 mg/kg, ip administered once a day for 3 weeks relative to control. The data set is classed as functional.
The test system of data set [14] is Mus musculus. In words: Anti-obesity activity in male C57BL/6 mouse model of high-fat diet induced obesity assessed as body weight change at 50 mg/kg, po administered once a day for 8 weeks relative to control. The class given is functional.
Data set [15] concerns Mus musculus. The experiment in a line: Anti-obesity activity in ovariectomized C57BL/6 mouse assessed as body weight change at 40 mg/kg, po administered once daily for 16 weeks relative to control. The data set is classed as functional.
Data set [16] relates to Mus musculus. In words: Anti-obesity activity in female C57BL/6 mouse model of high-fat diet induced obesity assessed as body weight change at 40 mg/kg, po administered once daily for 16 weeks relative to control. The class given is functional.
The subject of data set [17] is Mus musculus. The experiment in a line: Anti-obesity activity in male C57BL/6 mouse model of high-fat diet induced obesity assessed as body weight change at 20 mg/kg, ip administered twice a week for 12 weeks relative to control. The class given is functional.
Data set [18] relates to Mus musculus. The experiment in a line: Anti-obesity activity in male C57BL/6 mouse model of high-fat diet induced obesity assessed as body weight change at 5 mg/kg, po administered thrice a week for 8 weeks relative to control. The class given is functional.
Data set [19] is described as follows: Acute toxicity in po dosed C57BL/6J mouse assessed as lethal dose. The class given is organism-based. As to conditions: in vivo.
Data set [20] relates to Mus musculus. The experiment in a line: Anti-obesity activity in high-fat diet induced obesity model of C57BL/6J mouse assessed as body weight loss at 40 mg/kg/day, ip administered once daily for 14 days relative to control. The data set is classed as functional. The conditions noted are these: time 14 day.
Data set [21] concerns Mus musculus. The experiment in a line: Anti-obesity activity in high-fat diet induced obesity model of C57BL/6J mouse assessed as body weight loss at 20 mg/kg/day, po administered once daily for 14 days relative to control. The class given is functional. As to conditions: time 14 day.

Consider `CC1(C)CC[C@]2(C(=O)O)CC[C@]3(C)C(=CC[C@@H]4[C@@]5(C)CC[C@H](O)C(C)(C)[C@@H]5CC[C@]43C)[C@@H]2C1` [OLEANOLIC_ACID], for which the Activity with Mus musculus [1] was 71.9%; in the data set with Mus musculus [2] it was 45%.

Turning to `CC(C)(O)[C@@H]1CC[C@](C)([C@H]2[C@@H](O)C[C@@]3(C)[C@@H]4C[C@H](O[C@@H]5O[C@H](CO)[C@@H](O)[C@H](O)[C@H]5O)[C@H]5C(C)(C)[C@@H](O[C@@H]6OC[C@@H](O)[C@H](O)[C@H]6O)CC[C@@]56C[C@@]46CC[C@]23C)O1`, in the data set on Mus musculus [3], the Activity is given as 25.4%.

As for `O=c1c(-c2ccc(O)c(O)c2)coc2cc(O)ccc12`, in the data set with Mus musculus [4], the Activity was found to be 63.5%.

Consider `CC1(C)C=Cc2c(ccc3c2OC[C@@H](c2ccc(O)cc2O)C3)O1` [GLABRIDIN], for which the values for the Activity in the data set on Mus musculus [5] and in the data set with Mus musculus [6] were -16.7% and -13.2%, respectively.

On to `O=C(/C=C/c1ccc(O)c(O)c1)c1ccc(O)cc1O` [BUTEIN], for which the Activity in the data set with Mus musculus [7] was 42.9%.

Turning to `CC(C)=CCC[C@]1(C)[C@@H](CC=C(C)C)C[C@]2(CC=C(C)C)C(=O)C(CC=C(C)C)=C(O)[C@@]1(C(=O)C(C)C)C2=O`, the Kd in data set [8] came to 578 nM. Also, the Activity in the data set with Mus musculus [9] is listed as -13.7%.

As for `CC1=C(O)C(=O)C=C2C1=CC=C1[C@@]2(C)CC[C@@]2(C)[C@@H]3C[C@](C)(C(=O)O)CC[C@]3(C)CC[C@]12C` [CELASTROL], the LD50 in data set [10] is 20.5 mg/kg. Besides, the values for the Activity in the data set on Mus musculus [11], in the data set with Mus musculus [12] and in the data set with Mus musculus [13] were -45.4%, 1.8% and -27.7%, respectively.

As to `COc1ccc(-c2coc3cc(O)ccc3c2=O)cc1` [FORMONONETIN], in the data set with Mus musculus [14], the Activity amounted to 18.8%.

`COc1cc(O)c2c(=O)oc(-c3ccccc3)cc2c1CC=C(C)C`: the values for the Activity in the data set on Mus musculus [15] and in the data set on Mus musculus [16] were 17.9% and 28.6%, respectively.

`CC1(C)CC[C@]2(C(=O)O)CC[C@]3(C)C(=CC[C@@H]4[C@@]5(C)C[C@@H](O)[C@H](O)C(C)(C)[C@@H]5CC[C@]43C)[C@@H]2C1` [MASLINIC ACID]: the Activity with Mus musculus [17] was determined as 18.2%.

Take `Cc1coc2c1C(=O)C(=O)c1c-2ccc2c(C)cccc12` [TANSHINONE I]: the Activity in the data set on Mus musculus [18] came out at 30.6%.

Turning to `CC1(C)[C@@H](O)C(O)=C[C@]2(C)[C@H]3C(=O)C=C4[C@@H]5C[C@@](C)(C(=O)O)CC[C@]5(C)CC[C@@]4(C)[C@]3(C)CC[C@@H]12`, the LD50 in data set [19] is 940 mg/kg. The Activity in the data set with Mus musculus [20] was found to be 20%; with Mus musculus [21] it was 26%.
